Here are results for six compounds from PubChem BioAssay (NCI).

Common to all, as to test: NCI tumour cell line growth inhibition, 48 h
The subject of test [1] is SK-MEL-28 melanoma.
In test [2] the test system is OVCAR-3 ovarian.
The subject of test [3] is DU-145 prostate.
For test [4], the system named is NCI-H460 lung.
Test [5] relates to NCI/ADR-RES ovarian.
Test [6] relates to NCI-H226 lung.
Test [7] relates to HCC-2998 colon.
The subject of test [8] is MDA-MB-231 breast.
Test [9] has as its system CAKI-1 renal.
The test system of test [10] is HCT-116 colon.

Molecules are shown by their SMILES.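 Values below derive from 48-hour exposures of cells grown in 96-well plates, with endpoints linearly interpolated between the two concentrations bracketing the appropriate inhibition level. GI50 = concentration required for 50% inhibition of growth. TGI is the concentration that stops growth completely.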

As for `Cc1c(-c2c(F)cc(C(N)=O)c3[nH]c4c(c23)CC[C@H](C(C)(C)O)C4)cccc1-n1c(=O)c2cccc(F)c2n(C)c1=O`, the GI50 was 4.59 µM in test [1]; 3.95 µM in test [2]; 5.63 µM in test [3]; 3.43 µM in test [4]; 3.58 µM in [5]; 3.84 µM in [6]. Besides, the GI50 in [7] is 2.81 µM; in test [8], 4.34 µM; in test [9] it was 2.08 µM; in test [10] it was 2.66 µM. Also, the TGI in test [1] was more than 100 µM; in test [2], more than 100 µM; in test [3], more than 100 µM; in [4], more than 100 µM; in test [5], more than 100 µM; in [6] it was 26.4 µM. The TGI is 51.5 µM in test [7], more than 100 µM in test [8], more than 100 µM in test [9] and more than 100 µM in test [10].
As for `O=C(COc1ccc(Cl)cc1Cl)NNc1ccc([N+](=O)[O-])cc1`, the GI50 in [1] was 39.1 µM; in test [2] it was more than 100 µM; in test [3] it was 53.3 µM; in test [4], more than 100 µM; in test [5] it was 84 µM; in test [6], 28.9 µM. Further, the GI50 in test [7] was more than 100 µM; in test [8], 30.8 µM; in test [9], more than 100 µM; in test [10], 65.3 µM. The TGI in [1], in test [2], in [3], in test [4], in test [5] and in test [6] was more than 100 µM each time. In addition, the TGI in test [7], in test [8], in test [9] and in test [10] was more than 100 µM each time.
`COc1ccc(N2CCN(c3nc(-c4ccccn4)nc4sc5c(c34)CCCCCC5)CC2)cc1`: the GI50 was more than 100 µM in test [1]; 8.61 µM in [2]; 27.9 µM in test [3]; 4.67 µM in test [4]; 4.77 µM in test [5]; 6.49 µM in test [6]. Also, the GI50 in [7] was 10.3 µM; in test [8], 49.6 µM; in test [9], 5.4 µM; in test [10], 3.22 µM. Besides, the TGI in test [1], in test [2], in [3], in test [4], in [5] and in test [6] was more than 100 µM throughout. Besides, the TGI in test [7], in test [8], in test [9] and in test [10] was more than 100 µM in each case.
As to `C#Cc1cccc(NC(=O)C2CCCCN2C(=O)CCl)c1` (stereo not given), the GI50 is 54.1 µM in [1]; 10.1 µM in test [2]; 24.4 µM in [3]; 23.9 µM in test [4]; 16.5 µM in test [5]; 52.1 µM in [6]. For the same compound, the GI50 is 28.6 µM in test [7], 13.1 µM in test [8], 13.4 µM in test [9] and 13.7 µM in test [10]. In addition, the TGI is more than 82.5 µM in [1]; 22.2 µM in test [2]; more than 82.5 µM in test [3]; more than 82.5 µM in test [4]; 47.3 µM in test [5]; more than 82.5 µM in test [6]. The TGI is more than 82.5 µM in test [7], 28.7 µM in test [8], 26.3 µM in test [9] and 43.2 µM in test [10].
For `CS(=O)(=O)Nc1cc(-c2ccc3ncnc(Nc4ccc(OCc5ccccn5)c(Cl)c4)c3c2)cnc1Cl`, the GI50 in [1] is 0.256 µM; in test [2] it was 0.217 µM; in test [3] it was 0.52 µM; in [4], 0.502 µM; in test [5] it was 7.07 µM; in test [6] it was 0.549 µM. For the same compound, the GI50 in test [7] is 1.13 µM; in test [8], 0.313 µM; in [9] it was 1.09 µM; in [10] it was 0.648 µM. Further, the TGI is 3.92 µM in test [1]; 1.41 µM in test [2]; more than 100 µM in [3]; more than 100 µM in [4]; more than 100 µM in [5]; 11 µM in test [6]. Also, the TGI is 3.31 µM in [7], 2.03 µM in test [8], 3.66 µM in test [9] and more than 100 µM in test [10].
On to `COc1ccc(/C=C2\CCC(C)(CN(C)C)C2=O)cc1Br` (stereo not given), for which the TGI in test [1] is 45.4 µM; in test [2], 35.2 µM; in test [3], more than 100 µM; in test [4], more than 57.2 µM; in test [5], 43.2 µM; in test [6] it was 56.1 µM. The TGI is 35.8 µM in test [7], 68.1 µM in test [8], more than 91.6 µM in test [9] and 32.1 µM in test [10].
